Strand notation (5' to 3'): a small letter for the sugar, then the base; units joined by * are phosphorothioate-linked, units joined directly phosphodiester-linked; [ ] holds rarer units or linkages, { } end groups; capitals alone tell only the bases. e = 2'-O-(2-methoxyethyl) (MOE); [5mC] = 5-methylcytosine; d = 2'-deoxy (DNA)
test system: human hepatocyte growth factor receptor mRNA; test: Inhibition of human hepatocyte growth factor receptor mRNA levels in T-24 cells, quantitative real-time PCR; settings: averages from three experiments; also: test concentration or dose not given here

Substance | % INHIB (inhibition of human hepatocyte growth factor receptor mRNA levels)
155097 (antisense e[5mC]*e[5mC]*eT*e[5mC]*eG*dG*dT*d[5mC]*dA*dG*dA*dA*dA*dT*dT*eG*eG*eG*eA*eA) [compound 155097] | 53%
155098 (antisense eT*e[5mC]*eA*eG*eA*dA*dG*dT*dG*dT*d[5mC]*d[5mC]*dT*dA*dT*eT*eA*eA*eA*eG) [compound 155098] | 48%
155099 (antisense e[5mC]*eA*eG*eG*eT*dT*dT*dT*dT*d[5mC]*d[5mC]*d[5mC]*dA*dA*d[5mC]*eA*e[5mC]*e[5mC]*eT*eG) [compound 155099] | 77%
155100 (antisense eA*eG*e[5mC]*eT*eG*dA*dT*dA*d[5mC]*dT*dT*d[5mC]*dA*dT*dA*eT*eT*e[5mC]*eA*e[5mC]) [compound 155100] | 0%
155101 (antisense eT*eT*e[5mC]*eA*eG*d[5mC]*d[5mC]*dA*d[5mC]*dA*dG*dG*dA*dA*dA*eA*eA*e[5mC]*e[5mC]*e[5mC]) [compound 155101] | 40%
155102 (antisense eG*eA*eG*eA*eG*dG*d[5mC]*dA*dT*dT*dG*dA*d[5mC]*dT*dG*e[5mC]*eA*eG*eG*eA) [compound 155102] | 35%
155103 (antisense eT*eG*eG*eG*eA*dA*dG*d[5mC]*dT*dG*dA*dT*dA*d[5mC]*dT*eT*e[5mC]*eA*eT*eA) [compound 155103] | 86%
155104 (antisense eA*eT*eG*e[5mC]*eA*dA*dT*dG*dG*dA*dT*dG*dA*dT*d[5mC]*eT*eG*eG*eG*eA) [compound 155104] | 84%
155105 (antisense eA*eT*e[5mC]*eA*eA*dA*dG*dT*dA*dT*dT*dT*dG*dG*dA*eA*eA*eG*eG*eA) [compound 155105] | 64%
155106 (antisense e[5mC]*eA*e[5mC]*eA*eA*d[5mC]*d[5mC]*dT*dG*d[5mC]*dA*dT*dG*dA*dA*eG*e[5mC]*eG*eA*e[5mC]) [compound 155106] | 66%
155107 (antisense eT*e[5mC]*e[5mC]*eG*e[5mC]*dG*dG*dT*dG*dA*dA*dG*dT*dT*dG*eG*eG*eA*eA*eG) [compound 155107] | 42%
155108 (antisense eA*eT*eT*e[5mC]*eT*d[5mC]*dG*dG*dG*dA*d[5mC]*dA*d[5mC]*dT*dA*eA*e[5mC]*eT*eG*eA) [compound 155108] | 79%
155109 (antisense eA*eG*e[5mC]*eT*e[5mC]*dG*d[5mC]*dT*dG*dT*dT*d[5mC]*dA*dA*dT*eT*eT*e[5mC]*eA*eG) [compound 155109] | 80%
155110 (antisense eT*e[5mC]*eG*eG*eG*dA*d[5mC]*dA*d[5mC]*dT*dA*dA*d[5mC]*dT*dG*eA*eA*eT*eT*e[5mC]) [compound 155110] | 79%
155111 (antisense eG*eT*eT*e[5mC]*eG*dG*d[5mC]*dA*dG*dA*dA*dT*d[5mC]*dT*dG*eG*e[5mC]*eT*eT*eG) [compound 155111] | 86%
155112 (antisense eT*eA*eG*eG*eA*dG*dT*d[5mC]*dT*dT*d[5mC]*dT*d[5mC]*d[5mC]*d[5mC]*eT*eT*eG*e[5mC]*eA) [compound 155112] | 81%
155113 (antisense e[5mC]*eT*eA*eA*eT*dG*dA*dG*dT*dT*dG*dA*dT*d[5mC]*dA*eT*e[5mC]*eA*eT*eA) [compound 155113] | 83%
155114 (antisense eA*eA*eT*eT*eG*dT*dT*dG*d[5mC]*dT*dT*dT*d[5mC]*dA*dA*eA*eG*eG*e[5mC]*eA) [compound 155114] | 94%
155115 (antisense eA*eG*eT*eT*e[5mC]*d[5mC]*dT*dT*d[5mC]*d[5mC]*dT*dG*d[5mC]*dT*dT*e[5mC]*eA*eT*eG*e[5mC]) [compound 155115] | 89%
155116 (antisense eA*eA*eA*eT*e[5mC]*dT*dT*dT*d[5mC]*dA*dT*dG*dA*dT*dG*eA*eT*eT*e[5mC]*e[5mC]) [compound 155116] | 54%
155117 (antisense eG*eT*eA*eG*eA*dT*dT*dG*d[5mC]*dA*dG*dG*d[5mC]*dA*dG*eA*e[5mC]*eA*eG*eA) [compound 155117] | 75%
155118 (antisense e[5mC]*eA*eT*e[5mC]*e[5mC]*dA*dG*d[5mC]*dA*dT*dA*d[5mC]*dA*dG*dT*eT*eT*e[5mC]*eT*eT) [compound 155118] | 55%
155119 (antisense eA*eA*eG*eT*eA*dT*dA*dT*dT*dA*dA*dA*d[5mC]*dA*d[5mC]*eT*eT*e[5mC]*e[5mC]*eT) [compound 155119] | 92%

Substance | % INHIB (inhibition of human hepatocyte growth factor receptor mRNA levels)
155120 (antisense eG*eT*eG*eT*e[5mC]*d[5mC]*dT*dA*dT*dT*dA*dA*dA*dG*d[5mC]*eA*eG*eT*eG*e[5mC]) [compound 155120] | 90%
155121 (antisense eT*eG*eA*eA*eA*dG*dG*dA*d[5mC]*dT*dT*dT*dG*dG*d[5mC]*eT*e[5mC]*e[5mC]*e[5mC]*eA) [compound 155121] | 79%
155122 (antisense eA*eA*eG*e[5mC]*e[5mC]*dT*dA*dT*d[5mC]*d[5mC]*dA*dA*dA*dT*dG*eA*eG*eG*eA*eG) [compound 155122] | 69%
155123 (antisense eG*e[5mC]*eA*eA*eA*dG*d[5mC]*dT*dG*dT*dG*dG*dT*dA*dA*eA*e[5mC]*eT*e[5mC]*eT) [compound 155123] | 91%
155124 (antisense eT*eA*eT*eG*eA*dT*dG*dT*d[5mC]*dT*d[5mC]*d[5mC]*d[5mC]*dA*dG*eA*eA*eG*eG*eA) [compound 155124] | 53%
155125 (antisense eG*eG*eA*eA*eA*d[5mC]*dT*dG*dA*dT*d[5mC]*dT*dT*d[5mC]*dT*eG*eG*eA*eA*eA) [compound 155125] | 52%
155126 (antisense e[5mC]*eT*eG*eT*eG*d[5mC]*dA*dT*dT*dT*d[5mC]*dA*dA*dT*dG*eT*eA*eT*eT*e[5mC]) [compound 155126] | 68%
155127 (antisense eG*eA*eT*e[5mC]*eT*dG*dG*dT*dT*dG*dA*dA*d[5mC]*dT*dA*eT*eT*eA*e[5mC]*eT) [compound 155127] | 84%
155128 (antisense eA*e[5mC]*eT*eG*eT*dG*dA*dA*dT*dT*dT*dT*dT*d[5mC]*dA*eT*e[5mC]*e[5mC]*eA*eG) [compound 155128] | 83%
155129 (antisense eG*eA*eT*eT*eG*dG*dG*dT*d[5mC]*d[5mC]*dG*dT*dA*dA*dA*eA*eA*eT*eG*e[5mC]) [compound 155129] | 59%
155130 (antisense eT*e[5mC]*eT*e[5mC]*eT*dG*dA*dA*d[5mC]*dT*d[5mC]*dA*dG*dG*dT*eA*eA*eA*eA*e[5mC]) [compound 155130] | 83%
155131 (antisense e[5mC]*eA*eA*eT*eT*dT*dG*dG*d[5mC]*dA*dA*dG*dG*dA*dG*e[5mC]*eA*eA*eA*eG) [compound 155131] | 0%
155132 (antisense eG*eA*eT*eT*e[5mC]*d[5mC]*d[5mC]*dT*d[5mC]*dG*dG*dT*d[5mC]*dA*dG*eA*eA*eA*eT*eT) [compound 155132] | 39%
155133 (antisense eA*eA*eA*e[5mC]*e[5mC]*dA*dT*dT*dT*d[5mC]*dT*dG*dT*dA*dG*eT*eT*eG*eG*eG) [compound 155133] | 68%
209521 (antisense eG*eG*eA*eA*e[5mC]*d[5mC]*dA*dG*dT*dG*dG*dA*dG*dA*dA*eG*eT*e[5mC]*eA*eG) [compound 209521] | 58%
209522 (antisense eA*eG*eA*eG*eG*dT*dT*dT*dA*dT*d[5mC]*dT*dT*dT*d[5mC]*eG*eG*eT*eG*e[5mC]) [compound 209522] | 73%
209523 (antisense eG*eG*eG*e[5mC]*e[5mC]*dT*dT*d[5mC]*dA*dT*dT*dA*dT*dG*dA*eG*eA*eG*eG*eT) [compound 209523] | 84%
209524 (antisense e[5mC]*eT*e[5mC]*eA*eT*dG*dT*dA*dG*dA*dA*dT*dG*dA*d[5mC]*eA*eT*eT*e[5mC]*eT) [compound 209524] | 95%
209525 (antisense e[5mC]*eT*eG*eG*eT*d[5mC]*d[5mC]*dG*dT*d[5mC]*dA*dA*dA*dA*dA*e[5mC]*eA*eT*eA*eA) [compound 209525] | 89%
209526 (antisense eT*eT*eG*eA*eT*dA*dG*dG*dG*dA*dA*dT*dG*d[5mC]*dA*e[5mC]*eA*e[5mC]*eA*eT) [compound 209526] | 93%
209527 (antisense e[5mC]*eG*e[5mC]*eT*eT*d[5mC]*dA*d[5mC]*dA*dG*d[5mC]*d[5mC]*dT*dG*dA*eT*eG*eA*eA*eT) [compound 209527] | 81%
209528 (antisense eT*eT*eG*eG*eG*dA*dA*dA*dA*d[5mC]*d[5mC]*dT*dT*dG*dT*eA*eG*eA*eT*eT) [compound 209528] | 42%

From patent US20040102622A1, “Modulation of hepatocyte growth factor receptor expression” (Isis Pharmaceuticals Inc., priority 2002, published 2004)
